Key:
[1] = PBS stability assay at 37 °C via LC-MS/MS; format: physicochemical; settings: for half-life at 3 µM: phosphate-buffered saline (DPBS), pH 7.03, PBS; for PBS, 37 °C %rem. at 2h (Table S23) / half-life at 3 µM: 37 °C
[2] = Plasma stability assay at 37 °C via LC-MS/MS, human plasma; format: in vitro ADME; settings: for half-life at 3 µM: human, plasma;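 on all read-outs here: prodrugs at 3 µM incubated in human plasma at 37 °C, intact prodrug quantified by LC-MS/MS over time, values are means of duplicate runs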
[3] = Aqueous solubility by visual inspection in acetate buffer (pH 5); settings: for solubility: sodium acetate buffer, pH 5, aqueous buffer, thermodynamic from solid
Description: For the solubility assessment, acetate buffer (pH 5) was selected as the media of choice to ensure prodrug stability during analysis.
High aqueous solubility was determined by visual inspection of 5 mg solid material in 0.5 mL
sodium acetate buffer solution. This media was selected to ensure stability of prodrugs during
dissolution in 50 mg/mL aqueous media.

[4] = Stability in acetate buffer pH 5.0 at room temperature via HPLC (UV); format: physicochemical
Description: (§1) Stability studies were conducted in PBS and acetate buffer utilizing high performance liquid chromatography for potential drug storage considerations. […]
(§2) All experiments were performed in duplicate and results are presented as the average of two experimental replicates.
(§3) 1.1 Aqueous Stability in PBS and Acetate Buffer via HPLC
(§4) Material and Instrumentation
(§5) HPLC grade acetonitrile (MeCN) […] HPLC grade water (H 2O), and formic acid (FA) were purchased from Fisher Scientific.
(§6) Puradisc 4 mm PTFE (0.45 μm) syringe filters from Cytiva. Gibco ® Dulbecco’s phosphate-buffered saline (DPBS 1X, no calcium, no magnesium, pH = 7.03) and acetate buffer (pH = 5.0, 10 mM) were purchased directly from Thermo Fisher Scientific and Cytiva, respectively.
(§7) Aqueous stability experiments were performed on an Agilent 1100 HPLC equipped with an Agilent G1315B diode array detector, an Agilent G1316A heated column compartment, and a Zorbax Eclipse XDB-C18 (4.6 x 150 mm, 5 μm) column.
(§8) Procedure for Aqueous Stability Experiments
(§9) Each sample was first weighed out in two separate 2.0 mL vials using an analytical balance.
(§10) Unless otherwise specified, the test compounds were then dissolved in the aqueous media (PBS or acetate buffer) at a standard concentration of 1 mg/mL. All mixtures were subsequently sonicated for approximately 30 sec. […]
(§11) min), precipitates observed in sample solutions were filtered with a PTFE syringe filter prior to analysis. Immediately after sample preparation, injection by the HPLC autosampler was performed, which was recorded as the initial time point (t = 0 min). Solutions were then kept in the autosampler at RT and reinjected at designated intervals without additional filtration or sample modification. Remaining prodrug was defined by the area under the curve (AUC) at 254 nm. Aqueous stability was ascertained by calculating the percentage of the parent compound remaining after each time point. Linear regression of the time (x-axis) vs. ln(%remaining) (y-axis) plot afforded the rate constant k (slope = -k). Pseudo first-order half-lives were then calculated by the following equation: t1/2 = 0.693/k.

[5] = Stability in PBS at room temperature via HPLC (UV); format: physicochemical; settings: phosphate-buffered saline (DPBS)
Description: as §1, §2, §3, §4, §5, §6, §7, §8, §9, §10, §11

[6] = LC-MS/MS, read-out: Half-life (t½) PBS 37°C (converted)
[7] = read-out: PBS, 37 °C t½ (Table S23) (converted)
[8] = unit not given (h in Table S23), read-out: t1/2 of allopregnanolone prodrugs in PBS at 37 °C (Table S22) (converted)
[9] = LC-MS/MS, read-out: Half-life (t½) Plasma 37°C (converted)
[10] = read-out: Plasma, 37 °C t½ (Table S23) (converted)
[11] = unit not given (h in Table S23), read-out: t1/2 of allopregnanolone prodrugs in human plasma at 37 °C (Table S21) (converted)
[12] = pH 5, acetate buffer pH 5.0, RT, 1 mg/mL, HPLC 254 nm, read-out: t1/2 in acetate buffer at RT (Tables S5-S8) (converted)
[13] = pH 5, acetate buffer pH 5.0, rt, read-out: t½: pH 5.0, rt (Table S23) (converted)
[14] = pH 7.03, DPBS pH 7.03, RT, 1 mg/mL, HPLC 254 nm, read-out: t1/2 in PBS buffer at RT (Tables S1-S4) (converted)
[15] = pH 7.03, PBS, rt, read-out: t½: PBS, rt (Table S23) (converted)

## CNCCN(C(=O)O/N=C(\C)[C@H]1CC[C@H]2[C@@H]3CCC4C[C@H](O)CC[C@]4(C)[C@H]3CC[C@]12C)C1CC1.O=C(O)C(F)(F)F (some centres unmarked) [21b]
[1]; PBS
  PBS, 37 °C %rem. at 2h (Table S23): 73%
[1]; [6]
  half-life at 3 µM: 4.08 h
[1]; [7]
  half-life at 3 µM: 4.08 h
[1]; [8]
  half-life at 3 µM: 4.08 h
[2]
  Plasma, 37 °C %rem. at 2h (Table S23): 16%
[2]; [9]
  half-life at 3 µM: 0.73 h
[2]; [10]
  half-life at 3 µM: 0.73 h
[2]; [11]
  half-life at 3 µM: 0.73 h
[3]
  solubility: > 5000 µg/mL

## C/C(=N\OC(=O)N(C)C[C@@H]1CCCN1)[C@H]1CC[C@H]2[C@@H]3CCC4C[C@H](O)CC[C@]4(C)[C@H]3CC[C@]12C (some centres unmarked) [21l]
[1]; PBS
  PBS, 37 °C %rem. at 2h (Table S23): 16%
[1]; [6]
  half-life at 3 µM: 0.94 h
[1]; [7]
  half-life at 3 µM: 0.94 h
[1]; [8]
  half-life at 3 µM: 0.94 h
[2]
  Plasma, 37 °C %rem. at 2h (Table S23): 2%
[2]; [9]
  half-life at 3 µM: 0.36 h
[2]; [10]
  half-life at 3 µM: 0.36 h
[2]; [11]
  half-life at 3 µM: 0.36 h
[3]
  solubility: > 5000 µg/mL

## C/C(=N\OC(=O)N(CCN)CCN)[C@H]1CC[C@H]2[C@@H]3CCC4=CC(=O)CC[C@]4(C)[C@H]3CC[C@]12C [20w]
[4]; [12]
  half-life at 1 mg/mL: > 168 h
[4]; [13]
  half-life at 1 mg/mL: > 168 h
[5]; [14]
  half-life at 1 mg/mL: 10.1 ± 0.41 h
[5]; [15]
  half-life at 1 mg/mL: 10.1 h
[3]
  solubility: > 10000 µg/mL

## CNCCN(C(=O)O/N=C(\C)[C@H]1CC[C@H]2[C@@H]3CCC4C[C@H](O)CC[C@]4(C)[C@H]3CC[C@]12C)C(C)C.O=C(O)C(F)(F)F (some centres unmarked) [21c]
[1]; PBS
  PBS, 37 °C %rem. at 2h (Table S23): 68%
[1]; [6]
  half-life at 3 µM: 3.78 h
[1]; [7]
  half-life at 3 µM: 3.78 h
[1]; [8]
  half-life at 3 µM: 3.78 h
[2]
  Plasma, 37 °C %rem. at 2h (Table S23): 16%
[2]; [9]
  half-life at 3 µM: 0.51 h
[2]; [10]
  half-life at 3 µM: 0.76 h
[2]; [11]
  half-life at 3 µM: 0.51 h
[3]
  solubility: > 5000 µg/mL

## CNC1(CN(C)C(=O)O/N=C(\C)[C@H]2CC[C@H]3[C@@H]4CCC5=CC(=O)CC[C@]5(C)[C@H]4CC[C@]23C)CC1 [20s]
[1]; PBS
  Prodrug stability / self-immolation in buffer, in words: complete inhibition of cyclization
  PBS, 37 °C %rem. at 2h (Table S23): 93%
[1]; 3 µM, LC-MS/MS, read-out: t1/2 in PBS at 37 °C (Tables S14-S17) (converted)
  half-life at 3 µM: 18.5 h
[1]; [7]
  half-life at 3 µM: 18.5 h
[2]
  Plasma, 37 °C %rem. at 2h (Table S23): stable
[2]; LC-MS/MS
  Half-life (t½) Plasma 37°C: stable
[2]; 3 µM, LC-MS/MS, read-out: t1/2 in human plasma at 37 °C (Tables S10-S13, S18) (converted)
  half-life at 3 µM: > 24 h
[2]; [10]
  half-life at 3 µM: > 24 h
[3]
  solubility: > 10000 µg/mL

## CNCCN(CCNC)C(=O)O/N=C(\C)[C@H]1CC[C@H]2[C@@H]3CCC4=CC(=O)CC[C@]4(C)[C@H]3CC[C@]12C.Cl.Cl [20x]
[4]; [12]
  half-life at 1 mg/mL: 72.2 h
[4]; [13]
  half-life at 1 mg/mL: > 168 h
[5]; [14]
  half-life at 1 mg/mL: 1.51 ± 0.05 h
[5]; [15]
  half-life at 1 mg/mL: 1.51 h
[3]; aqueous media (acetate buffer)
  Stability in aqueous media during solubility assessment, in words: poor stability

## CNCCN(C)C(=O)O/N=C(\C)[C@H]1CC[C@H]2[C@@H]3CCC4C[C@H](O)CC[C@]4(C)[C@H]3CC[C@]12C.O=C(O)C(F)(F)F (some centres unmarked) [21a]
[1]; PBS
  PBS, 37 °C %rem. at 2h (Table S23): 88%
[1]; [6]
  half-life at 3 µM: 9.51 h
[1]; [7]
  half-life at 3 µM: 12.2 h
[1]; [8]
  half-life at 3 µM: 12.2 h
[2]
  Plasma, 37 °C %rem. at 2h (Table S23): 13%
[2]; [9]
  half-life at 3 µM: 1.27 h
[2]; [10]
  half-life at 3 µM: 0.59 h
[2]; [11]
  half-life at 3 µM: 0.59 h
[3]
  solubility: > 5000 µg/mL

## CNCCN(CCn1ccnc1)C(=O)O/N=C(\C)[C@H]1CC[C@H]2[C@@H]3CCC4C[C@H](O)CC[C@]4(C)[C@H]3CC[C@]12C (some centres unmarked) [21k]
[1]; PBS
  PBS, 37 °C %rem. at 2h (Table S23): 62%
[1]; [7]
  half-life at 3 µM: 4.12 h
[1]; [8]
  half-life at 3 µM: 4.12 h
[2]
  Plasma, 37 °C %rem. at 2h (Table S23): 14%
[2]; [10]
  half-life at 3 µM: 0.81 h
[2]; [11]
  half-life at 3 µM: 0.81 h
[3]
  solubility: > 5000 µg/mL

From paper PMC12516379, “Rotamer-Controlled Self-Immolative Linkers Enable Tunable Release of Neurosteroid Oxime Prodrugs” (ACS Medicinal Chemistry Letters, 2025)
